Data as given in the C3SDB collision cross section collection.

What was measured:
[1] = instrument: TW, calibrated with phosphatidylcholines (ESI+) and phosphatidylethanolamines (ESI-)
[2] = instrument: DT, single field, calibrated with Agilent tune mix (Agilent)

| collision cross section (N2) ([1]; [M+H]+) | collision cross section (N2) ([1]; [M-H]-) | collision cross section (N2) ([1]; [M+Na]+) | further results | SMILES |
| --- | --- | --- | --- | --- |
| 279.6 Å² |  |  |  | CCCCCCCCCCCCCCCCCCCCCCCC(=O)N[C@@H](CO)[C@H](O)CCCCCCCCCCCCCCC [Cer(d18:0/24:0)] |
| 284.5 Å² |  |  |  | CCCCCCCCCCCCC=CC[C@@H](O)[C@H](CO)NC(=O)CCCCCCCCCCCCCCCCCCCCCCCCC [Cer(d18:0/26:1)] |
|  | 243.7 Å² |  |  | CCCCCCCCCCCCC=CC[C@@H](O)[C@H](CO)NC(=O)CCCCCCCCCCCCCCC [Cer(d18:1/16:0)] |
| 261.2 Å² | 249.7 Å² |  |  | CCCCCCCCCCCCC=CC[C@@H](O)[C@H](CO)NC(=O)CCCCCCCCCCCCCCCCC [Cer(d18:1/18:0)] |
| 284.4 Å² |  |  |  | CCCCCCCCCCCCC=CC[C@@H](O)[C@H](CO)NC(=O)CCCCCCCCCCCCCCCCCCCCCCCCC [Cer(d18:1/26:0)] |
|  |  |  | collision cross section (N2) ([1]; [M+H-H2O]+): 263.5 Å² | CCCCC/C=C\C/C=C\CCCCCCCCCCCC(=O)O[C@@H](CO)COC(=O)CCCCCCCCCCCCC [DG(18:1/18:1)] |
| 220.8 Å² | 212.9 Å² | 224.8 Å² | collision cross section (N2) ([2]; [M+Na]+): 227.5 Å²; collision cross section (N2) ([2]; [M-H]-): 214.1 Å² | CCCCCCCCCCCCCCCCCC(=O)O[C@H](CO)COP(=O)(O)OCCN [LPE(18:0)] |
| 215.6 Å² | 204.7 Å² | 214.7 Å² |  | CCCCCCCCCCCCCC/C=C\OC[C@@H](O)COP(=O)([O-])OCC[NH3+] [LPE(p16:0)] |
| 217.2 Å² | 208.9 Å² | 216.5 Å² |  | CCCCCCCC/C=C\CCCCCC/C=C\OC[C@@H](O)COP(=O)([O-])OCC[NH3+] [LPE(p18:1)] |
|  | 254.7 Å² |  | collision cross section (N2) ([2]; [M+H]+): 271 Å²; collision cross section (N2) ([2]; [M+NH4]+): 271.2 Å²; collision cross section (N2) ([2]; [M+Na]+): 268.5 Å²; collision cross section (N2) ([2]; [M-H]-): 255.6 Å² | CCCCCCCC/C=C\CCCCCCCCCC(=O)O[C@H](COC(=O)CCCCCCCCCCCCC)COP(=O)(O)O [PA(34:1)] |
|  | 253.4 Å² |  | collision cross section (N2) ([2]; [M+H]+): 267.5 Å²; collision cross section (N2) ([2]; [M+NH4]+): 267.8 Å²; collision cross section (N2) ([2]; [M+Na]+): 266.5 Å² | CCCCC/C=C\C/C=C\CCCCCCCC(=O)O[C@H](COC(=O)CCCCCCCCCCCCCCC)COP(=O)(O)O [PA(34:2)] |
|  | 261.6 Å² |  | collision cross section (N2) ([2]; [M+NH4]+): 277.2 Å² | CC/C=C\C/C=C\C/C=C\C/C=C\CCCCC(=O)OC[C@H](COP(=O)(O)O)OC(=O)CCCCCCCCC/C=C\CCCCCCCC [PA(38:5)] |
|  | 260.9 Å² |  |  | CC/C=C\C/C=C\C/C=C\C/C=C\C/C=C\C/C=C\CCC(=O)O[C@H](COC(=O)CCCCCCCCCCCCCCC)COP(=O)(O)O [PA(38:6)] |
| 293.7 Å² |  |  | collision cross section (N2) ([2]; [M+H]+): 297 Å² | CCCCCC/C=C\CCCCCCCCCCCC(=O)O[C@H](COC(=O)CCCCCCCCC/C=C\CCCCCC)COP(=O)([O-])OCC[N+](C)(C)C [PC(38:2)] |
| 291.2 Å² |  |  | collision cross section (N2) ([1]; [M+CH3COO]-): 296.3 Å²; collision cross section (N2) ([2]; [M+HCOO]-): 294.4 Å²; collision cross section (N2) ([2]; [M+Na]+): 298.5 Å² | CCCCC/C=C\C/C=C\C/C=C\CCCCC(=O)OC[C@H](COP(=O)([O-])OCC[N+](C)(C)C)OC(=O)CCCCCCCCC/C=C\CCCCCCCC [PC(38:4)] |
| 293.3 Å² |  |  | collision cross section (N2) ([2]; [M+H]+): 296.2 Å² | CCCCC/C=C\C/C=C\C/C=C\C/C=C\CCCCCC(=O)O[C@H](COC(=O)CCCCCCC/C=C\C/C=C\CCCCC)COP(=O)([O-])OCC[N+](C)(C)C [PC(40:6)] |
| 273.7 Å² | 266.7 Å² |  | collision cross section (N2) ([2]; [M+H]+): 274.9 Å²; collision cross section (N2) ([2]; [M+Na]+): 279.9 Å²; collision cross section (N2) ([2]; [M-H]-): 266.1 Å² | CCCC/C=C\C/C=C\CCCCCCCC(=O)OC[C@H](COP(=O)(O)OCCN)OC(=O)CCCCCCC/C=C\CCCCCCCCC [PE(36:3)] |
| 291.7 Å² |  |  |  | CCCCC/C=C\C/C=C\C/C=C\C/C=C\CCCCCC(=O)O[C@H](COC(=O)CCCCCC/C=C\C/C=C\C/C=C\CCCCC)COP(=O)(O)OCCN [PE(42:7)] |

| collision cross section (N2) ([1]; [M+H]+) | collision cross section (N2) ([1]; [M-H]-) | collision cross section (N2) ([1]; [M+Na]+) | further results | SMILES |
| --- | --- | --- | --- | --- |
| 271.8 Å² |  |  | collision cross section (N2) ([2]; [M+H]+): 270 Å²; collision cross section (N2) ([2]; [M-H]-): 261.1 Å² | CCCCC/C=C\C/C=C\CCCCCCCC(=O)O[C@H](CO/C=C\CCCCCCCCCCCCCC)COP(=O)(O)OCCN [PE(p34:2)] |
|  | 264.6 Å² | 275.5 Å² |  | CC/C=C\C/C=C\C/C=C\C/C=C\CCCCC(=O)O[C@H](CO/C=C\CCCCCCCCCCCCCCCC)COP(=O)(O)OCCN [PE(p36:4)] |
| 284 Å² | 272.7 Å² |  |  | CCCCC/C=C\C/C=C\CCCCCCCCCCCC(=O)O[C@H](CO/C=C\CCCCCCCCCCCCCC)COP(=O)(O)OCCN [PE(p38:2)] |
| 278.3 Å² | 268.7 Å² | 279.4 Å² | collision cross section (N2) ([2]; [M+H]+): 280.2 Å²; collision cross section (N2) ([2]; [M-H]-): 270.6 Å² | CC/C=C\C/C=C\C/C=C\C/C=C\C/C=C\CCCC(=O)O[C@H](CO/C=C\CCCCCCCCCCCCCCCC)COP(=O)(O)OCCN [PE(p38:5)] |
| 290 Å² |  | 291.1 Å² |  | CCCCC/C=C\C/C=C\CCCCCCCCCC(=O)O[C@H](CO/C=C\CCCCCCCCCCCCCCCCCC)COP(=O)(O)OCCN [PE(p40:2)] |
| 287.9 Å² |  |  | collision cross section (N2) ([2]; [M-H]-): 277.1 Å² | CCCCC/C=C\C/C=C\C/C=C\CCCCCCC(=O)O[C@H](CO/C=C\CCCCCCCCCCCCCCCCCC)COP(=O)(O)OCCN [PE(p40:3)] |
| 283.5 Å² | 274.4 Å² | 286.8 Å² |  | CC/C=C\C/C=C\C/C=C\C/C=C\C/C=C\C/C=C\CCC(=O)O[C@H](CO/C=C\CCCCCCCCCCCCCCCC)COP(=O)(O)OCCN [PE(p40:6)] |
| 283 Å² |  | 281 Å² |  | CC/C=C\C/C=C\C/C=C\C/C=C\C/C=C\C/C=C\CCC(=O)O[C@H](CO/C=C\CCCCCC/C=C\CCCCCCCC)COP(=O)(O)OCCN [PE(p40:7)] |
|  |  | 277.8 Å² |  | CCCCC/C=C\C/C=C\C/C=C\C/C=C\CCCC(=O)OC[C@H](COP(=O)(O)OC[C@@H](O)CO)OC(=O)CCCCCCC/C=C\CCCCCC [PG(36:5)] |
|  | 283.7 Å² |  |  | CCCCC/C=C\C/C=C\C/C=C\CCCCCCC(=O)OC[C@H](COP(=O)(O)OC[C@@H](O)CO)OC(=O)CCCCCCCCC/C=C\CCCCCCCC [PG(40:4)] |
|  |  | 298.6 Å² |  | CCCCCCCCCCCCCCCCCCC(=O)OC[C@H](COP(=O)(O)O[C@H]1C(O)C(O)C(O)[C@@H](O)C1O)OC(=O)CCCCCCCCCCCCCCCC (stereo not given in full) [PI(36:0)] |
|  |  | 298.8 Å² |  | CCCCC/C=C\C/C=C\C/C=C\C/C=C\CCCC(=O)O[C@H](COC(=O)CCCCCC/C=C\C/C=C\C/C=C\CCCCC)COP(=O)(O)O[C@H]1C(O)C(O)C(O)[C@@H](O)C1O (stereo not given in full) [PI(40:7)] |
|  |  | 296.8 Å² |  | CC/C=C\C/C=C\C/C=C\C/C=C\CCCCC(=O)OC[C@H](COP(=O)(O)O[C@H]1C(O)C(O)C(O)[C@@H](O)C1O)OC(=O)CCCCC/C=C\C/C=C\C/C=C\C/C=C\CCCCC (stereo not given in full) [PI(40:8)] |
|  |  |  | collision cross section (N2) ([1]; [M+H-H2O]+): 296.4 Å² | CCCCCCCC/C=C\CCCCCCCC(=O)OC[C@H](COP(=O)(O)O[C@H]1C(O)C(O)C(O)[C@@H](OP(=O)(O)O)C1O)OC(=O)CCCCCCCCCCCCCCCCC (stereo not given in full) [PIP(36:1)] |
|  |  |  | collision cross section (N2) ([1]; [M+H-H2O]+): 292.7 Å² | CCCCC/C=C\C/C=C\CCCCCCCC(=O)O[C@H](COC(=O)CCCCCCC/C=C\CCCCCCCC)COP(=O)(O)O[C@H]1C(O)C(O)C(O)[C@@H](OP(=O)(O)O)C1O (stereo not given in full) [PIP(36:3)] |
|  |  |  | collision cross section (N2) ([1]; [M+H-H2O]+): 300.5 Å² | CCCCC/C=C\C/C=C\C/C=C\C/C=C\CCCC(=O)O[C@H](COC(=O)CCCCCCCCCCCCCCCCC)COP(=O)(O)O[C@H]1C(O)C(O)C(O)[C@@H](OP(=O)(O)O)C1O (stereo not given in full) [PIP(38:4)] |
| 283.2 Å² |  |  |  | CCCCCCCCCCCCC=CC[C@@H](O)[C@H](COP(=O)([O-])OCC[N+](C)(C)C)NC(=O)CC=CCCCCCCCCCCCCCC [SM(d18:1/18:1)] |
| 297.1 Å² |  |  |  | CCCCCCCCCCCCC=CC[C@@H](O)[C@H](COP(=O)([O-])OCC[N+](C)(C)C)NC(=O)CCCCCCCCCCCCCCCCCCCCC [SM(d18:1/22:0)] |
